Assay results from US9890111B2, “Crystal structure of bifunctional transglycosylase PBP1b from E. coli and inhibitors thereof” (Academia Sinica, priority 2008, dated 2018).
Values after ≈ are worked out from the molar mass of the structure shown. Where two headings read alike, the source gives them in different places.

Columns and labels:
[1] = tested on: Escherichia coli (ATCC 25922, EC); assay: Minimal inhibitory concentration (MIC), EC; format: cell-based
Method: (§1) The minimal inhibitory concentration (MIC) of tested compounds was determined following the NCCLS standard. The experiments were conducted in 96-well microtiter plates using two-fold dilutions in Muller-Hilton broth with (Streptococcus pneumonia) or without blood (Bacillus subtilis, Enterococcus faecalis, Staphylococcus aureus, Escherichia coli, MRSA, Actinetobacter baumannii, Pseudomonas aeruginosa, Stenotrophomonas maltophilia, and Mycobacterium smegmatis). Exponentially growing cells at 5×10^5 cells/ml were incubated with test compounds at various concentrations. After an 18 h to 24 h incubation at 37° C., MIC was determined as the minimal concentration of the compound that prevents bacterial growth.

[2] = biological target: T1, penicillin-binding protein 1b from E. coli (transglycosylase) (Escherichia coli, UniProt P02919); assay: Lipid II polymerization / transglycosylase (TG) activity assay; format: biochemical; conditions: for remaining activity at 100 µM: read-out: TG Activity at various concentration of cmpd: 100 μM; for TG Activity at various concentration of cmpd: 50 μM: 50 μM compound; for TG Activity at various concentration of cmpd: 100 μM: 100 μM compound; for remaining activity at 50 µM: read-out: TG Activity at various concentration of cmpd: 50 μM
T1 construct: PBP1b[58-804] was amplified from E. coli genomic DNA and cloned into the expression vector pET15b; His6 (N, cleaved yes); made in house; host or cells: E. coli BL21(DE3)
T1 sequence (P02919 58-804): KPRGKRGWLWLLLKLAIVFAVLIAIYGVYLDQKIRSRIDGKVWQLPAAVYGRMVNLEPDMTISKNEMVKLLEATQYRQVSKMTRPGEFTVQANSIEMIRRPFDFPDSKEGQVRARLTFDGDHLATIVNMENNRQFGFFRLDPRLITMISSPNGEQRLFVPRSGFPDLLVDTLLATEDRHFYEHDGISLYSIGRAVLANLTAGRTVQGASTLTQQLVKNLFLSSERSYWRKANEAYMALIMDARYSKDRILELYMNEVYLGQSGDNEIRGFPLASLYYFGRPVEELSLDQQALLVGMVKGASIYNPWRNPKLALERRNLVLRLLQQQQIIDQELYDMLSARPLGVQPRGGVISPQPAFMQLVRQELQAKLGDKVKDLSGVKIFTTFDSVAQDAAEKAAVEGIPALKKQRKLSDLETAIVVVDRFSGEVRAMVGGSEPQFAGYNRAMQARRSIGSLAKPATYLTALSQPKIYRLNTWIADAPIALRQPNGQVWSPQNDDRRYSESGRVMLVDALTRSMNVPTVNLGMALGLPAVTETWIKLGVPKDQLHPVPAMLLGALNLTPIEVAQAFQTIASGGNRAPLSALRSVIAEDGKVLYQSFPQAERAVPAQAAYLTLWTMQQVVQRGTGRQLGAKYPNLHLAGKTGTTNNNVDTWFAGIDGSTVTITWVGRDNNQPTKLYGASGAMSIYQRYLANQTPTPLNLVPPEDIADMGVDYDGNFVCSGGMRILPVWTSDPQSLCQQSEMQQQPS
Method: Lipid II polymerization assays were carried out by incubating 100 μM fluorophore-labeled lipid II and penicillin-binding protein 1b from E. coli in tubes containing 10 ng/μL N-acetyl muramidase in 50 mM Tris.HCl (pH 8.0), 10 mM MgCl2, 0.1% Triton X-100, 10% DMSO, and 15% MeOH for 30 minutes (Van Nieuwenhze et al. J Am Chem Soc 2002, 124, 3656.). The fluorophore can be dansyl chloride, NBD, BODIPY, fluorescein. Reaction supernatants were then injected onto an anion-exchange HPLC column (SAX1, Supelco Co.) and eluted with a linear gradient of ammonium acetate (20 mM to 0.5 M) in methanol. The eluant was monitored for fluorescence with λex=466 nm and λem=535 nm.
Purified protein was concentrated in 20 mM Tris-HCl (pH 8.0), 300 mM NaCl, and 1 mM DDM. Instead of using Dansyl lipid II, 6-(N-(7-nitrobenz-2-oxa-1,3-diazol-4-yl)amino) hexanoyl (NBD)-labeled Lipid II was prepared as described (Taubes G (2008) Science 321:356-361; Payne D J (2008) Science 321:1644-1645) and used as a substrate to measure TG enzymatic activity, with approach similar to what has been described previously (Holtje J V (1998) Microbiol Mol Biol Rev 62:181-203). Assays were carried out by using the following condition: NBD-Lipid II, 20 nM protein, 50 mM Tris HCl (pH 8.0), 10 mMCaCl2, 0.085% decyl PEG (Anatrace), and 15% MeOH at 37° C. for 0, 1, 3, 5, 7, 9, 20, and 30 min. The concentration of NBD-Lipid II was varied from 1 to 100 μM to determine the rate of the TG activity. After the reaction, 200 μM moenomycin was added to stop the reaction, and 13 μM muramidase (Sigma-Aldrich) was added to digest the TG products to result in NBD-Lipid II without lipid tails. The fluorescent signal decrease of substrate and increase of NBD-Lipid II without lipid tails were detected by anion-exchange column SAX1 (Supelco) on HPLC (Hitachi). The elution procedures was a linear gradient of ammonium acetate (20 mM to 1 M) in MeOH monitored at λexcitation=466 nm and λemission=535 nm. The kinetic parameter was estimated by following the Michaelis-Menten equation. To investigate the importance of transmembrane (TM) helix, PBP1b and PBP1bΔTM (residues Met-1 to Leu-87 were removed) were extracted with the buffer containing 20 mM Tris-HCl (pH 8.0), 300 mM NaCl, and 13 mM FOS-CHOLINE-14 (Anatrace). The protein was purified by nickel chelation chromatography in the presence of 1 mM DDM. The activity assay was carried out by using the following condition: 12 μM NBD-Lipid II, 20 nM protein, 50 mM Tris-HCl (pH 8.0), 10 mM CaCl2, 0.085% decyl PEG, and 15% MeOH at 37° C. for time 0, 1, 3, 5, 7, 9, 20, and 30 min. The initial velocity was used to compare the activity of full-length PBP1b and PBP1bΔTM.

[3] = tested on: methicillin-resistant Staphylococcus aureus (ATCC33592, MRSA); assay: Minimal inhibitory concentration (MIC), MRSA; format: cell-based; conditions: for MIC: Staphylococcus aureus, read-out: MIC MRSA
Method: as §1

[4] = tested on: Staphylococcus aureus (ATCC29213, SA); assay: Minimal inhibitory concentration (MIC), SA; format: cell-based; conditions: for MIC: Staphylococcus aureus; for MIC SA: Staphylococcus aureus ATCC29213
Method: as §1

[5] = tested on: Mycobacterium smegmatis (ATCC11565, MS); assay: Minimal inhibitory concentration (MIC), MS; format: cell-based; conditions: for MIC: Mycolicibacterium smegmatis; for MIC MS: Mycobacterium smegmatis ATCC11565
Method: as §1

[6] = ATCC25922, Escherichia coli ATCC 25922, read-out: MIC EC
[7] = methicillin-resistant Staphylococcus aureus ATCC33592
[8] = ATCC29213, Staphylococcus aureus ATCC29213, read-out: MIC SA
[9] = ATCC11565, Mycobacterium smegmatis ATCC11565, read-out: MIC MS
[10] = TG activity remaining (0% = full inhibition)

Structure (SMILES)	remaining activity at 100 µM [2]	MIC [3, 7]	MIC [4, 8]	MIC [5, 9]	MIC SA [4]	MIC MS [5]	MIC EC ([1]; Escherichia coli ATCC 25922)	TG Activity at various concentration of cmpd: 50 μM [2, 10]	TG Activity at various concentration of cmpd: 100 μM [2, 10]	MIC MRSA [3, 7]	other results
O=C(Nc1cc(Cl)c(Cl)c(Cl)c1)c1cc(Br)cc(Br)c1O [Compound 001]	100%	0.06 µg/mL (≈ 0.126 µM)	≤ 0.03 µg/mL	≤ 0.03 µg/mL							MIC [1, 6]: 16 µg/mL (≈ 33.7 µM)
O=C(Nc1ccc(Cl)c(Cl)c1)c1cc(Cl)cc(Cl)c1O [Compound 003]	100%										MIC ([1]; Escherichia coli, ATCC25922, read-out: MIC EC): 32 µg/mL (≈ 91.2 µM); MIC [3]: 1 µg/mL (≈ 2.85 µM); MIC ([4]; ATCC29213, read-out: MIC SA): 0.25 µg/mL (≈ 0.712 µM); MIC ([5]; ATCC11565, read-out: MIC MS): 0.06 µg/mL (≈ 0.171 µM)
O=C(Nc1cc(Cl)c(Cl)c(Cl)c1)c1cc(Cl)cc(Cl)c1O [Compound 004]	100%	0.5 µg/mL (≈ 1.3 µM)			0.125 µg/mL (≈ 0.324 µM)	≦0.03 μg/ml					MIC [1, 6]: 16 µg/mL (≈ 41.5 µM)
O=C(Nc1cc(Cl)cc(C(=O)c2ccc(Cl)cc2)c1Cl)c1cc(Br)cc(Br)c1O [Compound 115]					0.5 µg/mL (≈ 0.864 µM)	0.25 µg/mL (≈ 0.432 µM)	>256 µg/mL	100%	0%	2 µg/mL (≈ 3.46 µM)	
O=C(Nc1cc(Cl)cc(C(=O)c2ccccc2)c1Cl)c1cc(Br)cc(Br)c1O [Compound 116]					1 µg/mL (≈ 1.84 µM)	0.5 µg/mL (≈ 0.919 µM)	>256 µg/mL	100%	0%	8 µg/mL (≈ 14.7 µM)	
O=C(Nc1cc(Cl)cc(C(=O)c2ccc(Cl)cc2)c1Cl)c1cc(Cl)cc(Br)c1O [Compound 117]					0.5 µg/mL (≈ 0.936 µM)	0.25 µg/mL (≈ 0.468 µM)	>256 µg/mL	100%	0%	0.5 µg/mL (≈ 0.936 µM)	
O=C(Nc1ccc(Cl)cc1)c1cc(Br)cc(Br)c1O [Compound 118]	100%		1 µg/mL (≈ 2.47 µM)	1 µg/mL (≈ 2.47 µM)						4 µg/mL (≈ 9.87 µM)	MIC [1, 6]: 128 µg/mL (≈ 316 µM); remaining activity at 50 µM [2]: 100%
Cc1ccc(C(C)C)cc1Oc1ccc(Cl)cc1NC(=O)c1cc(Cl)cc(Br)c1O [Compound 121]					0.25 µg/mL (≈ 0.491 µM)	0.25 µg/mL (≈ 0.491 µM)	>256 µg/mL	0%	0%	0.125 µg/mL (≈ 0.245 µM)	TG Activity at various concentration of cmpd: 25 μM ([2]; 25 μM compound, TG activity remaining (0% = full inhibition)): 90%
O=C(Nc1ccc(Oc2ccc(Cl)cc2)c(Cl)c1)c1cc(Br)cc(Br)c1O [Compound 122]					0.5 µg/mL (≈ 0.94 µM)	0.125 µg/mL (≈ 0.235 µM)	>256 µg/mL	60%	0%	0.25 µg/mL (≈ 0.47 µM)	
O=C(c1ccc(Cl)cc1)c1cc(NC(=O)c2cc(Cl)cc(Br)c2O)c(Cl)cc1Cl [Compound 123]					0.25 µg/mL (≈ 0.468 µM)	0.06 µg/mL (≈ 0.112 µM)	>256 µg/mL	60%	0%	0.25 µg/mL (≈ 0.468 µM)	
O=C(c1ccccc1)c1cc(NC(=O)c2cc(Br)cc(Br)c2O)ccc1Cl [Compound 124]					1 µg/mL (≈ 1.96 µM)	1 µg/mL (≈ 1.96 µM)	>256 µg/mL	100%	0%	1 µg/mL (≈ 1.96 µM)	
O=C(Nc1ccc(O)cc1)c1cc(Br)cc(Br)c1O [KTS-1]		> 32 µg/mL	32 µg/mL (≈ 82.7 µM)	16 µg/mL (≈ 41.3 µM)							remaining activity at 50 µM [2]: 70%
O=C(Nc1ccccc1O)c1cc(Br)cc(Br)c1O [KTS-3]		4 µg/mL (≈ 10.3 µM)	4 µg/mL (≈ 10.3 µM)	4 µg/mL (≈ 10.3 µM)							remaining activity at 50 µM [2]: 70%
Cc1ccc(NC(=O)c2cc(Br)cc(Br)c2O)cc1Cl [KTS-7]	100%	1 µg/mL (≈ 2.38 µM)	1 µg/mL (≈ 2.38 µM)	1 µg/mL (≈ 2.38 µM)							remaining activity at 50 µM [2]: 100%
O=C(Nc1ccc(Cl)cc1)c1cc(Br)cc(Br)c1O [KTS-9]					1 µg/mL (≈ 2.47 µM)	2 µg/mL (≈ 4.93 µM)		100%	100%	1 µg/mL (≈ 2.47 µM)	
